From patent publication US8906852B2 (MethylGene Inc., priority 2010, dated 2014)
pIC50: −log10 of the molar value.

What follows are molecules tested against T1, VEGFR/KDR (Homo sapiens, UniProt P35968) (assay: VEGFR/KDR kinase inhibition, DELFIA assay). Details: ATP 0.6 uM (2x Km), enzyme 5 nM.
T1 construct: made in house; host or cells: Sf9 cells (Spodoptera frugiperda), baculovirus
Assay type: biochemical
Summary of the method: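 DELFIA time-resolved fluorescence readout using Europium-tagged anti-phosphotyrosine antibody after EDTA stop. Kinase reaction on plate-bound poly(Glu4,Tyr) ran 10-30 min at 30° C with 5 nM enzyme and 0.6 uM ATP (2× Km), following 4 min on-ice pre-incubation with compound; IC50 over a concentration range.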

T1 sequence (P35968 806-1356): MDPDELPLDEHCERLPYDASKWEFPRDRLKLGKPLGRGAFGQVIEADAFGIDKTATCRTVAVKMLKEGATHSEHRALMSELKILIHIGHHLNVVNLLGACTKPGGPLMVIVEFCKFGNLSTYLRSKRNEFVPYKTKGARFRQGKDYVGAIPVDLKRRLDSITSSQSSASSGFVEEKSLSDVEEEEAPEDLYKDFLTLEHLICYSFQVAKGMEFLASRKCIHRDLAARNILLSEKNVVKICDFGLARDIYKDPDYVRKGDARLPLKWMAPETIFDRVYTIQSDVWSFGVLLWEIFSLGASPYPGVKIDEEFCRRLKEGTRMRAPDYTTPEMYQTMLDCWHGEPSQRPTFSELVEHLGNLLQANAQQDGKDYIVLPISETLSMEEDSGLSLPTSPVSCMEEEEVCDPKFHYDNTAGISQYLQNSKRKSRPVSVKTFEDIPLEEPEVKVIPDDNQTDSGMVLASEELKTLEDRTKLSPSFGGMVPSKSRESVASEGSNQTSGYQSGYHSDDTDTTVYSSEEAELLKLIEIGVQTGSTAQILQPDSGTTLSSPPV

Row | SMILES | pIC50
1 | CN1CCN(C(=O)C2CCN(C(=O)c3cc4nccc(Oc5ccc(NC(=O)NC6CC6)cc5F)c4s3)CC2)CC1 [Compound 472, 1-cyclopropyl-3-(3-fluoro-4-(2-(4-(4-methylpiperazine-l-carbonyl)piperidine-1-carbonyl)thieno[3,2-b]pyridin-7-yloxy)phenyl)urea] | 7.00 to 7.30
2 | CC(=O)OCC(=O)N1CCN(C(=O)Cn2cc(-c3cc4nccc(Oc5ccc(NC(=O)NC6CC6)cc5F)c4s3)nn2)CC1 [Compound 390] | > 7.30
3 | COCCN(Cc1cnc(-c2cc3nccc(Oc4ccc(NC(=O)NC5CC5)cc4F)c3s2)n1C)C(=O)NC(C)C [Compound 189] | > 7.30
4 | O=C(Nc1ccc(Oc2ccnc3cc(-c4cn(CC(=O)N5CCN(C(=O)CO)CC5)nn4)sc23)c(F)c1)NC1CC1 [Compound 391] | > 7.30
5 | O=C(Nc1ccc(Oc2ccnc3cc(-c4ccc(CN5CCOCC5=O)cn4)sc23)c(F)c1)NC1CC1 [Compound 123, 1-cyclopropyl-3-(3-fluoro-4-(2-(5-((3-oxomorpholino)methyl)pyridin-2-yl)thieno[3,2-b]pyridin-7-yloxy)phenyl)urea] | > 7.30
6 | CS(=O)(=O)c1cccc(NC(=O)Nc2ccc(Oc3ccnc4cc(-c5ccc(CN6CCCC6=O)cn5)sc34)c(F)c2)c1 [Compound 105] | > 7.30
7 | CC(C)(C)C(=O)O[C@@H]1CCN(C(=O)c2cc3nccc(Oc4ccc(NC(=O)NC5CC5)cc4F)c3s2)C1 [Compound 443] | ≤ 6.60
8 | COCCOCCOCCOCCN(Cc1ccc(-c2cc3nccc(Oc4ccc(NC(=O)NC5CC5)c(F)c4F)c3s2)nc1)C(=O)CO [Compound 259, N-((6-(7-(4-(3-cyclopropylureido)-2,3-difluorophenoxy)thieno-[3,2-b]pyridin-2-yl)pyridin-3-yl)methyl)-2-hydroxy-N-(2,5,8,11-tetraoxatridecan-13-yl)acetamide] | > 7.30
9 | O=C(Nc1ccc(Oc2ccnc3cc(-c4cn(CCC(=O)N5CCCC5)nn4)sc23)c(F)c1)NC1CC1 [Compound 380] | > 7.30
10 | O=C(Nc1ccc(Oc2ccnc3cc(-c4ccc(CN5CCN(C(=O)[C@H](O)CO)CC5)cn4)sc23)c(F)c1)NC1CC1 [Compound 540] | > 7.30
11 | O=C(Nc1ccc(Oc2ccnc3cc(-c4ccc(CNc5ccc(OCCN6CCOCC6)cc5)cn4)sc23)c(F)c1)NC1CC1 [Compound 331, 1-Cyclopropyl-3-(3-fluoro-4-(2-(5-((4-(2-morpholinoethoxy)phenylamino)methyl)pyridin-2-yl)thieno[3,2-b]pyridin-7-yloxy)phenyl)urea] | > 7.30
12 | COCCNCc1ccc(-c2cc3nccc(Oc4ccc(NC(CC(=O)Nc5ccc(F)cc5)C(F)(F)F)cc4F)c3s2)nc1 (centres unmarked) [Compound 20, 4,4,4-trifluoro-3-(3-fluoro-4-(2-(5-((2-methoxyethylamino)methy)pyridin-2-yl)thieno[3,2-b]pyridin-7-yloxy)phenylamino)-N-(4-fluorophenyl)butanamide] | > 7.30
13 | CNC(=O)N1CCN(Cc2ccc(-c3cc4nccc(Oc5ccc(NC(=O)NC6CC6)cc5F)c4s3)nc2)CC1 [Compound 552] | > 7.30
14 | CC(C)NC(=O)Nc1ccc(Oc2ccnc3cc(-c4ncc(C(=O)NCCN5CCOCC5)n4C)sc23)c(F)c1 [Compound 218, 2-(7-(2-fluoro-4-(3-isopropylureido)phenoxy)thieno[3,2-b]pyridin-2-yl)-1-methyl-N-(2-morpholinoethyl)-1H-imidazole-5-carboxamide] | > 7.30
15 | CN(C)[C@@H]1CCN(C(=O)c2ccc(-c3cc4nccc(Oc5ccc(NC(=O)NC6CC6)cc5F)c4s3)nc2)C1 [Compound 227, (R)-1-cyclopropyl-3-(4-(2-(5-(3-(dimethylamino)pyrrolidine-1-carbonyl)pyridin-2-yl)thieno[3,2-b]pyridin-7-yloxy)-3-fluorophenyl)urea] | > 7.30
16 | COCCNCc1ccc(-c2cc3nccc(Oc4ccc(NC(=O)NC5CC5)cc4F)c3s2)cc1 [Compound 113] | > 7.30
17 | CCN(CC)CCn1cc(-c2cc3nccc(Oc4ccc(NC(=O)NC5CC5)cc4F)c3s2)nn1 [Compound 363] | > 7.30
18 | COC(=O)COC1CCN(Cc2ccc(-c3cc4nccc(Oc5ccc(NC(=O)NC6CC6)cc5F)c4s3)nc2)CC1 [Compound 328, methyl 2-(1-((6-(7-(4-(3-cyclopropylureido)-2-fluorophenoxy)thieno [3,2-b]pyridin-2-yl)pyridin-3-yl)methyl)piperidin-4-yloxy)acetate] | > 7.30
19 | COCCOCC(=O)N(CCOC)Cc1ccc(-c2cc3nccc(Oc4ccc(NC(=O)NC5CC5)cc4F)c3s2)cc1 [Compound 115, N-(4-(7-(4-(3-cyclopropylureido)-2-fluorophenoxy)thieno[3,2-b]pyridin-2-yl)benzyl)-2-(2-methoxyethoxy)-N-(2-methoxyethyl)acetamide] | > 7.30
20 | O=C(Nc1ccc(Oc2ccnc3cc(C4=CCN(CCCCO)CC4)sc23)c(F)c1)NC1CC1 [Compound 277, 1-cyclopropyl-3-(3-fluoro-4-(2-(1-(4-hydroxybutyl)-1,2,3,6-tetrahydropyridin-4-yl)thieno[3,2-b]pyridin-7-yloxy)phenyl)urea] | 6.60 to 7.00
21 | O=C(Nc1ccc(Oc2ccnc3cc(-c4ccc(C(=O)N5CCCC5)cc4)sc23)c(F)c1)Nc1ccc(F)cc1F [Compound 127, 1-(2,4-difluorophenyl)-3-(3-fluoro-4-(2-(4-(pyrrolidine-1-carbonyl)phenyl)thieno[3,2-b]pyridin-7-yloxy)phenyl)urea] | > 7.30
22 | CN(C)CCNC(=O)C1CCN(C(=O)c2cc3nccc(Oc4ccc(NC(=O)NC5CC5)cc4F)c3s2)CC1 [Compound 471, 1-(7-(4-(3-cyclopropylureido)-2-fluorophenoxy)thieno[3,2-b]pyridine-2-carbonyl)-N-(2-(dimethylamino)ethyl)piperidine-4-carboxamide] | 7.00 to 7.30

The remaining lines, values ahead:

Row | pIC50 | SMILES
23 | > 7.30 | COCCOCC(=O)N1CCN(Cc2ccc(-c3cc4nccc(Oc5ccc(NC(=O)NC6CC6)cc5F)c4s3)nc2)CC1 [Compound 589]
24 | > 7.30 | CCNC(=O)NC1CCN(Cc2ccc(-c3cc4nccc(Oc5ccc(NC(=O)NC6CC6)cc5F)c4s3)nc2)CC1 [Compound 353]
25 | > 7.30 | O=C(O)CCC1CCN(Cc2ccc(-c3cc4nccc(Oc5ccc(NC(=O)NC6CC6)cc5F)c4s3)nc2)CC1 [Compound 330, 3-(1-((6-(7-(4-(3-cyclopropylureido)-2-fluorophenoxy)thieno[3,2-b]pyridin-2-yl)pyridin-3-yl)methyl)piperidin-4-yl)propanoic acid]
26 | > 7.30 | O=C(Nc1ccc(Oc2ccnc3cc(-c4ccc(CN5CCC(C(=O)NCCO)CC5)cn4)sc23)c(F)c1)NC1CC1 [Compound 483, 1-((6-(7-(4-(3-cyclopropylureido)-2-fluorophenoxy)thieno[3,2-b]pyridin-2-yl)pyridin-3-yl)methyl)-N-(2-hydroxyethyl)piperidine-4-carboxamide]
27 | > 7.30 | O=C(Nc1ccc(Oc2ccnc3cc(-c4ccc(C(=O)N5CCN(C(=O)CO)CC5)cn4)sc23)c(F)c1)NC1CC1 [Compound 584]
28 | > 7.30 | O=C(O)CC(N1CCN(Cc2ccc(-c3cc4nccc(Oc5ccc(NC(=O)NC6CC6)cc5F)c4s3)nc2)CC1)C(F)(F)F (centres unmarked) [Compound 511, 3-(4-((6-(7-(4-(3-cyclopropylureido)-2-fluorophenoxy)thieno[3,2-b]pyridin-2-yl)pyridin-yl)methyl)piperazin-1-yl)-4,4,4-trifluorobutanoic acid]
29 | > 7.30 | O=C(Nc1ccc(Oc2ccnc3cc(-c4ccc(CN5CCC6(CC5)CCN(C(=O)CO)C6)cn4)sc23)c(F)c1)NC1CC1 [Compound 524, 1-cyclopropyl-3-(3-fluoro-4-(2-(5-((2-(2-hydroxyacetyl)-2,8-diazaspiro[4.5]decan-8-yl)methyl)pyridin-2-yl)thieno[3,2-b]pyridin-7-yloxy)phenyl)urea]
30 | > 7.30 | CN(C)CCNC(=O)C1CCCN(Cc2ccc(-c3cc4nccc(Oc5ccc(NC(=O)NC6CC6)cc5F)c4s3)nc2)C1 (centres unmarked) [Compound 491, 1-((6-(7-(4-(3-cyclopropylureido)-2-fluorophenoxy)thieno[3,2-b]pyridin-2-yl)pyridin-3-yl)methyl)-N-(2-(dimethylamino)ethyl)piperidine-3-carboxamide]
31 | > 7.30 | COCCN(Cc1ccc(-c2cc3nccc(Oc4ccc(NC(=O)NC5CC5)cc4F)c3s2)nc1)C(=O)CNC(=O)CN [Compound 92-A, 2-(2-aminoacetamido)-N-((6-(7-(4-(3-cyclopropylureido)-2-fluorophenoxy)thieno[3,2-b]pyridin-2-yl)pyridin-3-yl)methyl)-N-(2-methoxyethyl)acetamide]
32 | > 7.30 | COCCN(C)C1CCN(Cc2ccc(-c3cc4nccc(Oc5ccc(NC(=O)NC6CC6)cc5F)c4s3)nc2)CC1 [Compound 416]
33 | > 7.30 | CN(C[C@@H](O)[C@H](O)[C@@H](O)[C@@H](O)CO)C(=O)c1ccc(-c2cc3nccc(Oc4ccc(NC(=O)NC5CC5)cc4F)c3s2)nc1 (stereo in doubt) [Compound 244, 6-(7-(4-(3-cyclopropylureido)-2-fluorophenoxy)thieno[3,2-b]pyridin-2-yl)-N-methyl-N-((2R,3S,4S,5S)-2,3,4,5,6-pentahydroxyhexyl)nicotinamide]
34 | > 7.30 | COCCN(Cc1ccc(-c2cc3nccc(Oc4ccc(NC(=O)NC5CC5)cc4F)c3s2)cc1)C(=O)NC(C)C [Compound 193, 1-(4-(7-(4-cyclopropylaminocarbonylamino-2-fluorophenoxy)thieno-[3,2-b]pyridin-2-yl)benzyl)-3-isopropyl-1-(2-methoxyethyl)urea]
35 | > 7.30 | CC1(C)CN(Cc2ccc(-c3cc4nccc(Oc5ccc(NC(=O)NC6CC6)cc5F)c4s3)nc2)CCN1C(=O)CO [Compound 498, 1-cyclopropyl-3-(3-fluoro-4-(2-(5-((4-(2-hydroxyacetyl)-3,3-dimethylpiperazin-1-yl)methyl)pyridin-2-yl)thieno[3,2-b]pyridin-7-yloxy)phenyl)urea]
